Here are results for eleven compounds from patent US8436011B2, “Pyridinopyridinone derivatives, preparation thereof and therapeutic use thereof” (Sanofi, priority 2008, dated 2013).

Series [1] deals with T1, FLT3 receptor (MV4-11 cell line bearing an FLT3ITD mutant) (Homo sapiens, UniProt P36888, INS600HVDFREYEYD).
T1 construct: MV4-11 cell line, which line is established from a leukaemia of constitutively active AML type bearing an FLT3ITD mutant; endogenous in cells; host or cells: MV4-11
T1 sequence (P36888 with tags, fused parts or gaps INS600HVDFREYEYD): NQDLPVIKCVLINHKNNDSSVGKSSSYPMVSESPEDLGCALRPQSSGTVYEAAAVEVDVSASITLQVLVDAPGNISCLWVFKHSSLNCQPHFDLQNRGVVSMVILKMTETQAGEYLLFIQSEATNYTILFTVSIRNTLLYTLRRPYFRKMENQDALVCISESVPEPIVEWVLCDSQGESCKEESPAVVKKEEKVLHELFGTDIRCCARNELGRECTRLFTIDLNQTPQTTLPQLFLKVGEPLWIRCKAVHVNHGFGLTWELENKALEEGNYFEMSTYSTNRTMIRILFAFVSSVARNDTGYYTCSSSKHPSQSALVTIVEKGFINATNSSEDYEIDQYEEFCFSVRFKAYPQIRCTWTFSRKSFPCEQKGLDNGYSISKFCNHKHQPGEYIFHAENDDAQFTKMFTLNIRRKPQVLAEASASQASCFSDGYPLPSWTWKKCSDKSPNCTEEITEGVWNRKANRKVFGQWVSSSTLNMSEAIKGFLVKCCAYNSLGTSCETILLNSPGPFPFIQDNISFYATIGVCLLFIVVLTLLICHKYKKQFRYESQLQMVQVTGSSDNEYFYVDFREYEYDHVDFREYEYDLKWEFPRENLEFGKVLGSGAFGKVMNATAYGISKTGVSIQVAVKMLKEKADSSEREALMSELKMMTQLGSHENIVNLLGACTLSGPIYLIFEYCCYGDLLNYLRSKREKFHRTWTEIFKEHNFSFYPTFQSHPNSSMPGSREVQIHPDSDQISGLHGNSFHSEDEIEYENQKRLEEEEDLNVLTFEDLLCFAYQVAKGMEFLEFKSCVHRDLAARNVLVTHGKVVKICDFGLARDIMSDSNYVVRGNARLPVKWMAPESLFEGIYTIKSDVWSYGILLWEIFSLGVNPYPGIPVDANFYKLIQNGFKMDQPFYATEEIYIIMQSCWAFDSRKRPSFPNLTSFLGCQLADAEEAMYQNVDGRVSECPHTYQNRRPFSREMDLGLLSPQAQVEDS
In words: Inhibition of FLT3 receptor tyrosine kinase activity: proliferation of MV4-11 cells (CellTiter-Glo, 72 h). The series is classed as cell-based. As to conditions: 72 hours incubation, read-out: IC50 (concentration that inhibits 50% of the proliferation of the MV4-11 cells). The method, then: Measurement of Inhibition of the Tyrosine Kinase Activity of the FLT3 Receptor
The inhibitory effect of the compounds according to the invention towards the tyrosine kinase activity of the FLT3 receptor was evaluated on an MV4-11 cell line, which line is established from a leukaemia of constitutively active AML type bearing an FLT3ITD mutant. The inhibitory activity is correlated to the inhibition of cell growth, according to the protocols described by Spiekermann, K. et al., Blood, 2003, 101, (4) 1494-1504 and O'Farrell, A.-M. et al., Blood, 2003, 101, (9) 3597-3605.
(§1) MV4-11 cells are washed with PBS buffer and inoculated in 96-well plates, at a density of 1×10^5 cells/ml (100 μL per well), in RPMI 1640 containing 10% FCS, in the presence or absence of the test compounds. After incubation for 72 hours, the viable cells are quantified by measuring the cellular ATP by means of the CellTiter-Glo® kit (Promega, Cat G7571). The cells are treated according to the instructions given by the kit manufacturer, and the luminescence is measured using a Luminoskan (Ascent, Labsystem) with the following parameters: measurement: single; integration time: 1000 ms, lag time: 5 s.
The inhibitory activity with respect to the FLT3 receptor is given by the concentration that inhibits 50% of the proliferation of the MV4-11 cells.

Series [2] addresses fusion protein FIP1L1-PDGF-Rα (EOL-1 cell line) (Homo sapiens, UniProt P16234). In words: Inhibition of PDGF alpha receptor tyrosine kinase activity: proliferation of EOL-1 cells (CellTiter-Glo, 72 h). The series is classed as cell-based. The method, then:
Measurement of Inhibition of the Tyrosine Kinase Activity of the PDGF Alpha Receptor: The inhibitory effect of the compounds according to the invention towards the tyrosine kinase activity of the PDGF alpha receptor was evaluated on the EOL-1 cell line, which line is established from a leukaemia of constitutively active chronic eosinophilic leukaemia (CEL) type. The EOL-1 line has been described as expressing the fusion protein FIP1L1-PDGF-Rα and is sensitive to kinase inhibitors in proliferation tests (Cools J. et al., Blood 2004, 103, […]). The inhibitory activity is correlated to the inhibition of cell growth. […] After incubation for 72 hours, the viable cells are quantified by measuring the cellular ATP by means of the CellTiter-Glo® kit (Promega, Cat G7571). The cells are treated according to the instructions given by the kit manufacturer, and the luminescence is measured using a Luminoskan (Ascent, Labsystem) with the following parameters: measurement: single; integration time: 1000 ms, lag time: 5 s. It is thus seen that the compounds according to the invention have inhibitory activity on the tyrosine kinase activity of PDGF-Rα. This activity is given by the concentration that inhibits 50% of the proliferation of the EOL-1 cells.

Series [3] concerns the target T2, fusion protein Tel/PDGF-Rβ (BaF3 Tel/PDGF cells) (Homo sapiens, UniProt P09619).
T2 construct: the transmembrane and intracellular part of the PDGF-Rβ receptor; N-terminal part of the Tel transcription factor (ETV6); expressed in transfected cells; host or cells: murine haematopoietic cell line BaF/3; the other entry of the earlier key: ETV6 (P41212, Transcription factor ETV6)
As to the kind of experiment: Inhibition of PDGF-Rβ tyrosine kinase activity: proliferation of BaF3 Tel/PDGF cells (CellTiter-Glo, 72 h). The format is cell-based, murine. To be noted: 72 hours incubation, read-out: IC50 (concentration that inhibits 50% of the proliferation of the BaF3 Tel/PDGF cells). The method, then: Measurement of Inhibition of the Tyrosine Kinase Activity of the PDGF Beta (PDGF-Rβ) (Baf-3 tel/PDGFIRβ) Receptor:
This test consists in evaluating the effects of the compounds on the tyrosine kinase activity of the PDGF beta receptor.
The inhibitory effect of the compounds according to the invention towards the tyrosine kinase activity of the PDGF-R receptor was evaluated on the murine haematopoietic cell line BaF/3 transfected with a plasmid coding for the fusion protein Tel/PDGF-Rβ. This fusion protein is found in chronic myelomonocytic myeloid leukaemias (CMML). It comprises the N-terminal part of the Tel transcription factor and the transmembrane and intracellular part of the PDGF-Rβ receptor. This fusion protein is present in dimerized form (presence of an oligomerization domain in the N-terminal part of Tel) and, as a result, leads to constitutive activity of the kinase domain of PDGF-Rβ. This line BaF3 Tel/PDGF has been described in the literature several times and especially, in detailed manner, in the article by M. Carroll et al., PNAS, 1996, 93, 14845-14850.
as §1, with “The BaF3 Tel/PDGF” for “MV4-11”, “phosphate” for “PBS”, “5×10^4” for “1×10^5”, “[…]” for “μL”
It is thus seen that the compounds according to the invention have inhibitory activity on the tyrosine kinase activity of PDGF-Rβ. This activity is given by the concentration that inhibits 50% of the proliferation of the BaF3 Tel/PDGF cells (IC50).
On the technique in general: Cellular ATP, detected with luciferase, serves as a proxy for viable cell number.

Where [4] appears, read: read-out: IC50 (concentration that inhibits 50% of the proliferation of the EOL-1 cells), 72 hours incubation.
Setting [5] is: 72 hours incubation, read-out: IC50 (concentration that inhibits 50% of the proliferation of the EOL-1 cells).

Like-named read-outs stand apart in the source and are kept apart here.

Chain of fusion protein FIP1L1-PDGF-Rα (EOL-1 cell line) (P16234 579-1089, change not shown): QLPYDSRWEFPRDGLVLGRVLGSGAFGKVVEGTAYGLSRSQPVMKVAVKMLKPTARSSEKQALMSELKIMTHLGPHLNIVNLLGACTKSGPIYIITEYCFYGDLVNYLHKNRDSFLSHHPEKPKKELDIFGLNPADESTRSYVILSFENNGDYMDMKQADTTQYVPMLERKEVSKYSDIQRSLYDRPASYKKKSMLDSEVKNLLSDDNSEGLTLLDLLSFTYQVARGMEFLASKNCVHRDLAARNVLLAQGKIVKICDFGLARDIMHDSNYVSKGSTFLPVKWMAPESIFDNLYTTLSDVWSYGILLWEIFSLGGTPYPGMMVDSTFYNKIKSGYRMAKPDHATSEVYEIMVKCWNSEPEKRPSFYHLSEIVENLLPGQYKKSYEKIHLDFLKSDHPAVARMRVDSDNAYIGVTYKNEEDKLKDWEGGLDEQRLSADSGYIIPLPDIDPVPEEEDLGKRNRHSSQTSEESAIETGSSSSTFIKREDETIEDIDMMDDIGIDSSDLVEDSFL
Chain of fusion protein FIP1L1-PDGF-Rα (EOL-1 cell line) (Q6UN15 1-339 partner): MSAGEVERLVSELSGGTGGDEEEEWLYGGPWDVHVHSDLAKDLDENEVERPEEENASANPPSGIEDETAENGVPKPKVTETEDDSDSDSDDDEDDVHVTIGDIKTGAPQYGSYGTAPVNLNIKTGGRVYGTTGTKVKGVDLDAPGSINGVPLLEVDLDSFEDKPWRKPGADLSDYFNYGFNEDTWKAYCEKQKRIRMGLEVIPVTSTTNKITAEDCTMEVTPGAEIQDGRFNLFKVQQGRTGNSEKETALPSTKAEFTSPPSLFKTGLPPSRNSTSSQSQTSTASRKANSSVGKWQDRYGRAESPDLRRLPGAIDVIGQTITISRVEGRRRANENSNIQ
T2 sequence (P09619 with tags, fused parts or gaps): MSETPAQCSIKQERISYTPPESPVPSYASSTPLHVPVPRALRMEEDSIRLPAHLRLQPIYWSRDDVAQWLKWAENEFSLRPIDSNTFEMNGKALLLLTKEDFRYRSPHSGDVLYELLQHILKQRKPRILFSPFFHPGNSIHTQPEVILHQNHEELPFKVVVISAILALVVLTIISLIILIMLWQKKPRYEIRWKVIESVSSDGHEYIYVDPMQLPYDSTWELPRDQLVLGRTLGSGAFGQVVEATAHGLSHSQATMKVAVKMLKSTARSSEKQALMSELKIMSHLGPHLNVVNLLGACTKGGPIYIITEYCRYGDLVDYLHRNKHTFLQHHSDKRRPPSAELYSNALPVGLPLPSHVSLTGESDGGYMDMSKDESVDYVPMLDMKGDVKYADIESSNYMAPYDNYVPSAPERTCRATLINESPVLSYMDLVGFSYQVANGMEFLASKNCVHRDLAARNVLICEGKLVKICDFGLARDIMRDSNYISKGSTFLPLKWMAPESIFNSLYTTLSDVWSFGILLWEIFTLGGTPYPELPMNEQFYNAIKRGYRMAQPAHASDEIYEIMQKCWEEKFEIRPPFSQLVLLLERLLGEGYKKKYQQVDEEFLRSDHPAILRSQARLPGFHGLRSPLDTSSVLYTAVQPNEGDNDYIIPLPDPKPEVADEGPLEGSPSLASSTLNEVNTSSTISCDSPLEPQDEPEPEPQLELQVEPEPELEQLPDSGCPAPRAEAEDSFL

In the case of `CCn1c(N)c(C(=O)NC)c(=O)c2ccc(-c3ccc(CC(=O)Nc4ccccn4)cc3)nc21` [compound 4, 2-amino-1-ethyl-N-methyl-4-oxo-7-{4-[2-oxo-2-(pyrid-2-ylamino)ethyl]-phenyl}-1,4-dihydro-1,8-naphthyridine-3-carboxamide], the IC50 in series [1] was 210 nM.

Usually melting point stands for the temperature of the solid-liquid transition. Take `CCn1c(N)c(C(=O)NC)c(=O)c2ccc(-c3ccc(CC(=O)Nc4cc(F)cc(F)c4)cc3)nc21` [compound 6, 2-amino-7-(4-{2-[(3,5-difluorophenyl)amino]-2-oxoethyl}phenyl)-1-ethyl-N-methyl-4-oxo-1,4-dihydro-1,8-naphthyridine-3-carboxamide]: the melting point is more than 260 °C. For the same compound, the IC50 in series [2] (setting [4]) stood at 0.57 nM. Also, the IC50 in series [3] was 11 nM. The IC50 in series [1] stood at 100 nM.

`CCn1c(N)c(C(=O)NC)c(=O)c2ccc(-c3ccc(CC(=O)Nc4ccncn4)cc3)nc21` [compound 16, 2-amino-1-ethyl-N-methyl-4-oxo-7-{4-[2-oxo-2-(pyrimidin-4-ylamino)-ethyl]phenyl}-1,4-dihydro-1,8-naphthyridine-3-carboxamide] showed a melting point of more than 280 °C. In series [1], the IC50 is 182 nM.

As for `CCN1CCCC1CNC(=O)Cc1ccc(-c2ccc3c(=O)c(C(=O)NC)c(N)n(C4CCCC4)c3n2)cc1` (stereo not drawn) [compound 50, 2-amino-1-cyclopentyl-7-[4-(2-{[(1-ethylpyrrolidin-2-yl)methyl]amino}-2-oxoethyl)phenyl]-N-methyl-4-oxo-1,4-dihydro-1,8-naphthyridine-3-carboxamide], the melting point stood at 222 °C. Also, the IC50 in series [2] (setting [4]) is 3.2 nM.

In the case of `CCN1CCOCC1CNC(=O)Cc1ccc(-c2ccc3c(=O)c(C(=O)NC)c(N)n(CC)c3n2)cc1` (stereo not drawn) [compound 22, 2-amino-1-ethyl-7-[4-(2-{[(4-ethylmorpholin-3-yl)methyl]amino}-2-oxoethyl)phenyl]-N-methyl-4-oxo-1,4-dihydro-1,8-naphthyridine-3-carboxamide], the IC50 in series [3] was 0.07 nM; in series [1], 130 nM.

`CCN1CCC[C@@H]1CNC(=O)Cc1ccc(-c2ccc3c(=O)c(C(=O)NC)c(N)n(CC)c3n2)cc1` [compound 14, 2-amino-1-ethyl-7-{4-[2-({[(2R)-1-ethylpyrrolidin-2-yl]methyl}amino)-2-oxoethyl]phenyl}-N-methyl-4-oxo-1,4-dihydro-1,8-naphthyridine-3-carboxamide] yielded a melting point of 270 °C. In addition, the IC50 in series [3] came out at 11 nM. The IC50 in series [1] was 340 nM.

As for `CCn1c(N)c(C(=O)NC)c(=O)c2ccc(-c3ccc(CC(=O)Nc4cccnc4)cc3)nc21` [compound 3, 2-amino-1-ethyl-N-methyl-4-oxo-7-{4-[2-oxo-2-(pyrid-3-ylamino)ethyl]-phenyl}-1,4-dihydro-1,8-naphthyridine-3-carboxamide], the IC50 in series [1] turned out to be 330 nM.

The compound `CCn1c(N)c(C(=O)NC)c(=O)c2ccc(-c3ccc(CC(=O)Nc4ccccc4Cl)cc3)nc21` [compound 5, 2-amino-7-(4-{2-[(2-chlorophenyl)amino]-2-oxoethyl}phenyl)-1-ethyl-N-methyl-4-oxo-1,4-dihydro-1,8-naphthyridine-3-carboxamide] registered a melting point of more than 260 °C. Besides, in series [2] (setting [4]), the IC50 was determined as 1.6 nM. Moreover, the IC50 in series [1] worked out at 190 nM.

Turning to `CCN1CCCC1CNC(=O)Cc1csc(-c2ccc3c(=O)c(C(=O)NC)c(N)n(CC)c3n2)n1` (stereo not drawn) [compound 43, 2-amino-1-ethyl-7-[4-(2-{[(1-ethylpyrrolidin-2-yl)methyl]amino}-2-oxoethyl)-1,3-thiazol-2-yl]-N-methyl-4-oxo-1,4-dihydro-1,8-naphthyridine-3-carboxamide], the IC50 in series [2] (setting [5]) is 29.7 nM.

As to `CCN1CCCC1CNC(=O)CCCCc1ccc(-c2ccc3c(=O)c(C(=O)NC)c(N)n(CC)c3n2)cc1` (stereo not drawn) [compound 51, 2-amino-1-ethyl-7-[4-(5-{[(1-ethylpyrrolidin-2-yl)methyl]amino}-5-oxopentyl)phenyl]-N-methyl-4-oxo-1,4-dihydro-1,8-naphthyridine-3-carboxamide], the melting point was determined as 180 °C. Moreover, the IC50 in series [2] (setting [5]) is 92.7 nM.

Consider `CCn1c(N)c(C(=O)NC)c(=O)c2ccc(-c3ccc(CC(=O)Nc4ccccn4)cn3)nc21` [compound 19, 2-amino-1-ethyl-N-methyl-4-oxo-7-{5-[2-oxo-2-(pyrid-2-ylamino)-ethyl]pyrid-2-yl}-1,4-dihydro-1,8-naphthyridine-3-carboxamide], for which the IC50 in series [2] (setting [4]) amounted to 0.4 nM; in series [3], 27 nM; in series [1] it was 100 nM.
